The results in this text go back to patent US20230056888A1, “COMPOSITIONS COMPRISING CYANIDIN-3-GALACTOSIDE FOR USE AS VASORELAXANT” (Evonik Operations GmbH, priority 2019, published 2023).

“Also recorded” adds a separate entry of the source.

Assay [1] relates to nitric oxide production in mice mesenteric arteries. Briefly: Evaluation of NO production by DAF-FM in mesenteric arteries. Type of assay: cell-based. To be noted: HB 50 μg/mL or 100 μg/mL; single anthocyanins 50 μg/mL; comparator acetylcholine 10^-6 M. The method, then: Production of NO was assessed as previously described (Carrizzo et al. 2016). Healthberry 865®-865 (100 μg/mL) or acetylcholine (10^-6 M) was administered to the mesenteric artery in the last 30 min of 4-amino-5-methylamino-2,7,-difluorofluorescein diacetate (DAF-FM) incubation, alone and after […] exposure to L-NAME (300 μmol/L, 30 min). Mesenteric segments were cut in 5-μm thick sections, observed under a fluorescence microscope, subsequently counterstained with haematoxylin and eosin and observed under a light microscope.
FIG. 2 D) show representative high-power micrographs of 10 μm sections of mice mesenteric arteries loaded for 2 h with […] (DAF-FM) reveal nitric oxide production after treatment with acetylcholine (Ach 10^-6 M) or HB (50 μg/mL) and after 30 min of pretreatment with L-NAME (300 μmol/L), counterstained with haematoxylin and eosin (HE). Scale bar, 50 μm. E) Semiquantitative analyses of immunoblots of mice mesenteric arteries treated with HB (100 μg/mL) alone, or HB plus Akt inhibitor or LY294002, columns are the mean±SEM of three independent experiments. Statistical analyses were performed using two-way ANOVA followed Bonferroni post-hoc test. *p<0.05; **p<0.01, ***p<0.001.
FIG. 7A-D show vascular response of phenylephrine-precontracted mice mesenteric arteries to increasing doses of a combination of anthocyanins mixed with a ratio 1:1. […]

The test system of a further assay is mice mesenteric arteries. In words: Vascular reactivity of phenylephrine-precontracted mice mesenteric arteries, alone or with selective inhibitors. It counts as cell-based. To be noted: for vasorelaxant effect in presence of Akt inhibitor: Akt inh 1 μM; for vasorelaxant effect in presence of Akt inhibitor / vasorelaxant effect in presence of PI3K inhibitor LY294002: 1 h; for vasorelaxant effect in presence of L-NAME (eNOS inhibitor): L-NAME 300 μM, 30 min pre-treatment; for vasorelaxant effect in presence of PI3K inhibitor LY294002: LY294002 10 μM; for direct vasorelaxant action of single anthocyanin, compared with Healthberry 865®: increasing doses 1-100 μg/mL; for vasorelaxation reached by single anthocyanin: dose-response curves 1-100 μg/mL.

Assay [2] has as its system reactive oxygen species (ROS) in mouse mesenteric arteries. In words: Total ROS production (DHE / DHR123) in mesenteric arteries stimulated with Angiotensin II. To be noted: 50 μg/mL, 1 hour pre-treatment, then Angiotensin II 15 minutes, confirmed by DHR123. It counts as cell-based. The method, then: Dihydroethidium (DHE, Life Technologies) was used to evaluate production of reactive oxygen species (ROS) in mouse mesenteric arteries, as previously described. Briefly, vessels were incubated with 5 μM of DHE for 20 min and subsequently observed under a fluorescence microscope (Zeiss). Images were acquired by a digital camera system (Olympus Soft Imaging Solutions). […] After treatment, vessels were incubated with Krebs solution containing 5 μM DHR123 for 30 min at 37° C., and then washed two times with PBS prior to fluorescence measurement using a fluorescence microplate reader (TECAN infinite 200 Pro).
(§1) Vessels were pre-treated with single anthocyanins (50 μg/mL) for 1 hours and then stimulated with Angiotensin II for 15 minutes prior to the acquisition. […] Data are expressed as increase of chemiluminescence per minute.
(§2) Data are expressed as increase of chemiluminescence per minute. Statistical analysis were performed using One-way ANOVA followed Bonferroni post-hoc test.

The subject of another assay is NADPH oxidase. In words: NADPH oxidase activity (lucigenin-enhanced chemiluminescence) in mesenteric arteries after Angiotensin II. Type of assay: cell-based, mice. Particulars: for NADPH oxidase (NOX) activity after stimulation with Angiotensin II: single anthocyanins 50 μg/mL, smaller reduction than Healthberry 865®. The method, then:
Vessels were homogenized in a buffer containing protease inhibitors (mmol/L: 20 monobasic potassium phosphate, 1 EGTA, 0.01 aprotinin, 0.01 leupeptin, 0.01 pepstatin, 0.5 phenylmethylsulfonyl fluoride, pH 7.0). Protein content was measured in an aliquot of the homogenate by Bradford method. In some experiments, cells and vessels were pre-incubated with pharmacological inhibitors before measurements. The reaction was started by the addition of NADPH (0.1 mmol/l) and lucigenin (5 μmol/l) to each well. The chemiluminescence was measured using Tecan Infinite Pro M200 multimode microplate at 37° C.
as §1, §2

In the case of `OC[C@H]1OC(Oc2cc3c(O)cc(O)cc3[o+]c2-c2ccc(O)c(O)c2)[C@H](O)C(O)C1O` (stereo partly shown) [C3-gal, Cyanidin-3-galactoside], in assay [1], the “nitric oxide production (DAF-FM fluorescence)” value is “significant increase of nitric oxide production”. Also, in the assay with mice mesenteric arteries, the “vasorelaxant effect in presence of Dorsomorphin (AMPK inhibitor)” value was “completely lost its vasorelaxant capability”, the “vasorelaxant effect in presence of Akt inhibitor” value is “did not inhibit”, the “vasorelaxant effect in presence of L-NAME (eNOS inhibitor)” value was “significantly reduced” and the “vasorelaxant effect in presence of PI3K inhibitor LY294002” value is given as “did not inhibit”. Also, the “direct vasorelaxant action of single anthocyanin, compared with Healthberry 865®” value with mice mesenteric arteries was “able to reproduce the direct vasorelaxant effect”.

For `COc1cc(-c2[o+]c3cc(O)cc(O)c3cc2O[C@@H]2O[C@H](CO)[C@@H](O)[C@H](O)[C@H]2O)cc(OC)c1O` [MAL3-glu, Malvidin-3-glucoside], the “Angiotensin II-induced ROS formation” value in assay [2] is recorded as “able to reproduce the antioxidant action”. Also, in the assay with NADPH oxidase, the “rank of NOX activity reduction among single anthocyanins relative to Healthberry 865®” value was “most powerful anthocyanins” and the “NADPH oxidase (NOX) activity after stimulation with Angiotensin II” value (“NADPH oxidase (NOX) activity” for short) is on record as “able to reduce NOX activity”. Besides, in the assay on mice mesenteric arteries, the “direct vasorelaxant action of single anthocyanin, compared with Healthberry 865®” value is “none of the single anthocyanins was able to evoke a dose-dependent vasorelaxation comparable”.

Regarding `COc1cc(-c2[o+]c3cc(O)cc(O)c3cc2O[C@@H]2O[C@H](CO)[C@H](O)[C@H](O)[C@H]2O)cc(OC)c1O` [MAL3-gal, Malvidin-3-galactoside], in assay [2], the “Angiotensin II-induced ROS formation” value is recorded as “able to reproduce the antioxidant action”. The “NADPH oxidase (NOX) activity” value in the assay with NADPH oxidase was “able to reduce NOX activity”. Besides, the “direct vasorelaxant action of single anthocyanin, compared with Healthberry 865®” value in the assay on mice mesenteric arteries was “none of the single anthocyanins was able to evoke a dose-dependent vasorelaxation comparable”.

`OC[C@H]1O[C@@H](Oc2cc3c(O)cc(O)cc3[o+]c2-c2cc(O)c(O)c(O)c2)[C@H](O)[C@@H](O)[C@H]1O` [DP3-gal, Delphinidin-3-galactoside]: in the assay on mice mesenteric arteries, the “vasorelaxation reached by single anthocyanin” value was “about 32.5%” and the “direct vasorelaxant action of single anthocyanin, compared with Healthberry 865®” value is “none of the single anthocyanins was able to evoke a dose-dependent vasorelaxation comparable; also recorded: vasorelaxant effects”.

For `OC[C@H]1O[C@@H](Oc2cc3c(O)cc(O)cc3[o+]c2-c2ccc(O)c(O)c2)[C@H](O)[C@@H](O)[C@@H]1O` [C3-glu, Cyanidin-3-glucoside], the “Angiotensin II-induced ROS formation” value in assay [2] is reported as “able to reproduce the antioxidant action”. In the assay with NADPH oxidase, the “rank of NOX activity reduction among single anthocyanins relative to Healthberry 865®” value is “most powerful anthocyanins” and the “NADPH oxidase (NOX) activity” value is “able to reduce NOX activity”. Moreover, the “direct vasorelaxant action of single anthocyanin, compared with Healthberry 865®” value in the assay with mice mesenteric arteries was “none of the single anthocyanins was able to evoke a dose-dependent vasorelaxation comparable”.

In the case of `Oc1cc(O)c2cc(O[C@H]3OC[C@H](O)[C@H](O)[C@H]3O)c(-c3cc(O)c(O)c(O)c3)[o+]c2c1` [DP3-ara, Delphinidin-3-arabinoside], the “direct vasorelaxant action of single anthocyanin, compared with Healthberry 865®” value in the assay with mice mesenteric arteries was “none of the single anthocyanins was able to evoke a dose-dependent vasorelaxation comparable; also recorded: vasorelaxant effects”.

Regarding `OC[C@H]1O[C@@H](Oc2cc3c(O)cc(O)cc3[o+]c2-c2cc(O)c(O)c(O)c2)[C@H](O)[C@@H](O)[C@@H]1O` [DP3-glu, Delphinidin-3-glucoside], the “Angiotensin II-induced ROS formation” value in assay [2] is given as “able to reproduce the antioxidant action”. Also, the “NADPH oxidase (NOX) activity” value in the assay with NADPH oxidase is recorded as “able to reduce NOX activity”. In addition, in the assay with mice mesenteric arteries, the “direct vasorelaxant action of single anthocyanin, compared with Healthberry 865®” value is “none of the single anthocyanins was able to evoke a dose-dependent vasorelaxation comparable”.

Turning to `OC[C@H]1O[C@@H](Oc2cc3c(O)cc(O)cc3[o+]c2-c2cc(O)c(O)c(O)c2)[C@H](O[C@@H]2OC[C@@H](O)[C@H](O)[C@H]2O)[C@@H](O)[C@@H]1O` [DP3-samb, Delphinidin-3-sambubioside], the “nitric oxide production (DAF-FM fluorescence)” value in assay [1] was “significant increase of nitric oxide production”. Moreover, in the assay on mice mesenteric arteries, the “vasorelaxant effect in presence of Dorsomorphin (AMPK inhibitor)” value is reported as “inhibited”, the “vasorelaxant effect in presence of Akt inhibitor” value is “did not influence”, the “vasorelaxant effect in presence of L-NAME (eNOS inhibitor)” value was “significantly reduced” and the “vasorelaxant effect in presence of PI3K inhibitor LY294002” value is given as “inhibited”. Besides, in the assay with mice mesenteric arteries, the “direct vasorelaxant action of single anthocyanin, compared with Healthberry 865®” value is on record as “able to reproduce the direct vasorelaxant effect”.

For Peonidin-3-galactoside [PEO3-gal], in assay [2], the “Angiotensin II-induced ROS formation” value is on record as “able to reproduce the antioxidant action”. Moreover, the “NADPH oxidase (NOX) activity” value in the assay with NADPH oxidase was “able to reduce NOX activity”. The “direct vasorelaxant action of single anthocyanin, compared with Healthberry 865®” value in the assay with mice mesenteric arteries is listed as “none of the single anthocyanins was able to evoke a dose-dependent vasorelaxation comparable”.

On to `C[C@@H]1O[C@@H](OC[C@H]2O[C@@H](Oc3cc4c(O)cc(O)cc4[o+]c3-c3ccc(O)c(O)c3)[C@H](O)[C@@H](O)[C@@H]2O)[C@H](O)[C@H](O)[C@H]1O` [C3-rut, Cyanidin-3-rutinoside], for which, in assay [2], the “Angiotensin II-induced ROS formation” value was “able to reproduce the antioxidant action”. Further, the “NADPH oxidase (NOX) activity” value in the assay with NADPH oxidase was “able to reduce NOX activity”. Also, in the assay on mice mesenteric arteries, the “vasorelaxation reached by single anthocyanin” value is reported as around 36.5% and the “direct vasorelaxant action of single anthocyanin, compared with Healthberry 865®” value is given as “none of the single anthocyanins was able to evoke a dose-dependent vasorelaxation comparable; also recorded: vasorelaxant effects”.

As for `COc1cc(-c2[o+]c3cc(O)cc(O)c3cc2O[C@@H]2O[C@H](CO)[C@@H](O)[C@H](O)[C@H]2O)cc(O)c1O` [PT3-glu, Petunidin-3-glucoside], in the assay with mice mesenteric arteries, the “direct vasorelaxant action of single anthocyanin, compared with Healthberry 865®” value is recorded as “none of the single anthocyanins was able to evoke a dose-dependent vasorelaxation comparable”.
